Measurements published in PMC10349142, “Minimal mechanistic component of HbYX-dependent proteasome activation that reverses impairment by neurodegenerative-associated oligomers” (Communications Biology, 2023).
Values belong to the compound of their own block, whether it stands above or below them.

Experiments:
[1] = biological target: T1, Mammalian 20S proteasome (M20S); assay: fluorogenic peptide hydrolysis, activator saturation curve; assay type: biochemical, Bos taurus
T1 construct: gene PSMA5; native 20S core particle purified from bovine liver; alpha7-beta7-beta7-alpha7; with Proteasome subunit beta type-1; Proteasome subunit beta type-2; Proteasome subunit beta type-3; Proteasome subunit beta type-4; Proteasome subunit beta type-5; Proteasome subunit beta type-6; Proteasome subunit beta type-7
Text: fluorogenic peptide hydrolysis, activator saturation curve on Mammalian 20S proteasome (M20S)

[2] = biological target: T2, T. acidophilum 20S proteasome (T20S) (Thermoplasma acidophilum, UniProt P25156, K66A); assay: LFP nonapeptide hydrolysis; assay type: biochemical; conditions: 7 nM T20S; LFP substrate; pH 7.5; 45 °C; 2% DMSO
T2 construct: gene psmA; recombinant 20S core particle; 8xHis tag on C-terminus of beta subunit; with Proteasome subunit beta

[3] = biological target: T3, T. acidophilum 20S proteasome (T20S) (Thermoplasma acidophilum, UniProt P25156, DEL2-12); assay: LFP nonapeptide hydrolysis; assay type: biochemical; conditions: 7 nM T20S; LFP substrate; pH 7.5; 45 °C; 2% DMSO
T3 construct: gene psmA; recombinant 20S core particle; 8xHis tag on C-terminus of beta subunit; with Proteasome subunit beta

[4] = biological target: T4, T. acidophilum 20S proteasome (T20S) (Thermoplasma acidophilum, UniProt P25156); assay: LFP nonapeptide hydrolysis, dose response; assay type: biochemical; conditions: activation (gate opening); 7 nM T20S; LFP substrate; pH 7.5; 45 °C; 2% DMSO; allosteric, alpha intersubunit pockets
T4 construct: gene psmA; recombinant 20S core particle; 8xHis tag on C-terminus of beta subunit; with Proteasome subunit beta

[5] = biological target: T1, Mammalian 20S proteasome (M20S); assay: fluorogenic peptide hydrolysis, activator saturation curve (Hill fit); assay type: biochemical, Bos taurus; conditions: activation (gate opening); nLPnLD-AMC substrate; 0.5 nM 20S; pH 7.5; 37 °C; 2% DMSO; allosteric, alpha intersubunit pockets; read-out: Kobs
Text: fluorogenic peptide hydrolysis, activator saturation curve (Hill fit) on Mammalian 20S proteasome (M20S)

[6] = activation; pH 7.5; 37 °C; 2% DMSO; site unknown; read-out: Kobs

T4 sequence (P28061 9-211, stated change not applied): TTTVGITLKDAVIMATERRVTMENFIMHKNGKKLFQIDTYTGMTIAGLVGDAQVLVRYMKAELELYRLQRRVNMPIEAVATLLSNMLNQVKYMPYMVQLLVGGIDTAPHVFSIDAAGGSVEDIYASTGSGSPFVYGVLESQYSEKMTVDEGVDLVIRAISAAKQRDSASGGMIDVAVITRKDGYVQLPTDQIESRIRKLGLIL
T4 sequence (P25156 whole entry, stated change not applied): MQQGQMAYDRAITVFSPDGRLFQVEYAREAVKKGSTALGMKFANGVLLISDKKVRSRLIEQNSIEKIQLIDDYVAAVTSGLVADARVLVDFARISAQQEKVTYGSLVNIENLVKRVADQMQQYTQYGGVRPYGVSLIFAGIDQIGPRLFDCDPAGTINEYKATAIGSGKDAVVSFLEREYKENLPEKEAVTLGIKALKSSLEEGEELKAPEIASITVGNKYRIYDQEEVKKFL
T3 sequence (P25156 other isoform, or with tags, fused parts or gaps DEL2-12): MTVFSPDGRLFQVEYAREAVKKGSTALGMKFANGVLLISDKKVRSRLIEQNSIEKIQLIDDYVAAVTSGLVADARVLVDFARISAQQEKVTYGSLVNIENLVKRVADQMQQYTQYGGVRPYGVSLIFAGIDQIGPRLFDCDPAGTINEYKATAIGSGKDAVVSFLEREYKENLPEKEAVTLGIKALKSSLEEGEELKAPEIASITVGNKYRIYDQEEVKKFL
T3 sequence (P28061 9-211, stated change not applied, further chain): as the sequence (P28061 9-211, stated change not applied) above
T2 sequence (P25156 whole entry K66A): as the sequence (P25156 whole entry, stated change not applied) above, with K66A counted along it
T2 sequence (P28061 9-211, further chain): as the sequence (P28061 9-211, stated change not applied) above

- EC50 [1, 6]: 2.7 µM
Structure (SMILES): O=C1NCN(c2ccccc2)C12CCN(CCCC(c1ccc(F)cc1)c1ccc(F)cc1)CC2 [Fluspirilene]

Structure (SMILES): CCCCC/C=C\C/C=C\C/C=C\C/C=C\CCCC(=O)Nc1ccc(O)cc1 [AM-404]
- EC50 ([1]; read-out: Kobs; activation; pH 7.5; 37 °C; 2% DMSO; site unknown): 12.1 µM

- EC50 [1, 6]: 0.8 µM
Structure (SMILES): CCOC(=O)[C@]1(c2ccccc2)N=C(c2ccc(OC)cc2)N(Cc2ccccc2)[C@@H]1c1ccc(NCc2ccccc2)cc1 [TCH-165]

- EC50 [5]: 970 µM
Structure (SMILES): C[C@H](NC(=O)[C@H](Cc1ccc(O)cc1)NC(=O)OCc1ccccc1)C(=O)O [ZYA]
- no activation at 2.5 mM [2]: it could not stimulate gate-opening in T20S-K66A to any extent (Fig. 2d)
- no activation at 2.5 mM [3]: ZYA did not stimulate the activity of αΔN-T20S to any extent (Fig. 2e)
- affinity [4]: highly similar to its affinity for the T20S (Fig. 2b)
